Results on one compound are retold here after paper PMC6270263, “Factors Influencing the Antifolate Activity of Synthetic Tea-Derived Catechins” (Molecules, 2013).

Where two headings read alike, the source gives them in different places.

Data set [1] addresses T1, bovine serum albumin (BSA) (Bos taurus, UniProt P02769).
T1 construct: purchased Sigma-Aldrich
Kind of data set: Competitive site-marker (warfarin, ibuprofen) binding to BSA. The settings on record: for Kd: BSA, 25 °C, read-out: Binding constant (KA) (converted). How it is done:
Next, the site selective binding of both EGCG and TMCG to BSA was analyzed. The capability of serum albumins to bind to aromatic and heterocyclic compounds is largely dependent on the existence of two major binding regions, namely site-I and site-II [25]. Warfarin and ibuprofen are fluorescence probes whose primary binding sites to BSA are site-I and site-II, respectively.
To identify the binding sites of EGCG and TMCG in BSA, the displacements of warfarin and ibuprofen (known to bind at site I and site II, respectively) were followed fluorometrically. Equimolar solutions of BSA and warfarin (5 × 10^−6 M each) were mixed for 1 h and titrated with EGCG and TMCG in separate experiments. Similar solutions containing equimolar ibuprofen and BSA were prepared and separately titrated with EGCG and TMCG to identify the binding sites of EGCG and TMCG with BSA. Titration was followed fluorometrically using an excitation wavelength of 280 nm.

Data set [2] is described as follows: UV-visible absorption spectra at different pH (ionization state). The data set is classed as physicochemical. The conditions noted are these: UV-visible spectra; pH range 5.0–9.0 for TMCG and TMECG. As to the method:
It has been shown that the protonation state of methotrexate, trimethoprim, and pyrimethamine modulates the binding of these antifolates to DHFRs from several sources. […] The absorbance maximum at 278 nm undergoes a bathochromic displacement to 328 nm, which is greatest at alkaline pH (pH > 9.0).
To determine if the spectral changes in the SYCG and SYECG solutions with pH were due to an irreversible oxidation reaction or to a reversible protonation step, a pH titration experiment was carried out. An alkaline solution of SYCG and SYECG (pH 8.5) was acidified to pH 2.5 by the addition of dilute HCl. A change in the spectra was observed, indicating a reversible protonation reaction. The spectral changes with pH observed in SYCG and SYECG can be attributed to the hydroxyl group para on the ester-bonded gallate moiety. At acidic pH, these derivatives are mainly present as protonated species, whereas at basic pH or values near neutrality, these derivatives evolve toward the deprotonated species, which are stabilized by resonance (Scheme 3). […] As described, an important factor that decreases catechin bioavailability might be their inability to easily cross cellular membranes by passive diffusion. The presence of several hydroxyl groups in these molecules gives them a high hydrophilic character, which increases the difficulty of passing across lipid membranes.
Ultraviolet-visible absorption spectra of catechins at different pHs were recorded on a UV-Vis Perkin-Elmer Lambda-2 spectrophotometer with a spectral bandwidth of 1 nm at a scan speed of 60 nm s^−1. The experiments were performed in the same buffer as described for DHFR binding studies, and the ionic strength remained constant at an optimum value of 0.15 over the pH range that was used. The pH of the reaction was measured before and after the experiment.

The target of data set [3] is T1, bovine serum albumin (BSA). Description: BSA binding by fluorescence quenching. The text has this:
Upon progressive additions of various concentrations of EGCG and TMCG to BSA, the emission intensity decreases, as shown in Figure 4(a). The quenching of the fluorescence intensity of BSA implies that the catechins bind at close proximity to the tryptophan and tyrosine residues and that the molecular arrangement of BSA is affected by the interactions. […] The binding constants (KA) for the BSA-EGCG and BSA-TMCG complexes are 1.54 × 10^7 M^−1 and 1.9 × 10^5 M^−1, respectively (Table 4), and their plots are shown in Figure 4(b). […] In light of these findings, it can be reasoned that the binding affinity to BSA is higher for the galloylated catechin than for the methylated one, which emphasises that the three phenolic groups can enhance hydrogen bonding between BSA and EGCG [25].
Fluorescence measurements were made on an automatic scanning Perkin-Elmer LS50B spectrofluorometer with 1.0 cm light path cells equipped with a 150 W xenon (XBO) light source. In all experiments, the fluorescence of BSA (5 × 10^−6 M) in 50 mM phosphate buffer of pH 7.5 was followed by excitation at 280 nm. The binding affinities of EGCG and TMCG with BSA in terms of binding constants were determined using the following equation [25]: log (F0−F)/F = log KA + n log [Q](1) where KA is the binding constant, n is the number of binding sites, F0 is the fluorescence intensity of free BSA and F is the consequent fluorescence upon the addition of catechins (Q). A plot of log (F0-F)/F against log [Q] was used to determine the values of KA and n from the intercept and the slope, respectively.

Data set [4] concerns the target T2, free recombinant human DHFR (rHDHFR) (Homo sapiens, UniProt P00374).
T2 construct: made in house; host or cells: Bombyx mori chrysalides
T2 sequence (P00374 1-187): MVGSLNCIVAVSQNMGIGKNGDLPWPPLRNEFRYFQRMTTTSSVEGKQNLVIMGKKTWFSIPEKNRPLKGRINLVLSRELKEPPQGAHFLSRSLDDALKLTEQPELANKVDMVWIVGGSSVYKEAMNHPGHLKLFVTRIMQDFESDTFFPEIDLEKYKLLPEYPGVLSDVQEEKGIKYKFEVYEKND
Kind of data set: Binding of polyphenols to free rHDHFR by fluorescence quenching titration. As to the method:
Natural and synthetic derivatives of tea catechins have shown to be good inhibitors of human DHFR [7, 11, 16, 18]. To determine the ability of natural and synthetic polyphenols to bind DHFR, we performed a structure-activity study by analyzing the binding of these polyphenols to DHFR using fluorescence quenching. Effective binding to free recombinant human DHFR (rHDHFR) was determined by measuring the decrease in enzyme fluorescence that occurs upon the formation of the enzyme-inhibitor complex. […] The dissociation constants of the synthetic compounds were on the same order as those of the natural analogues, indicating the high DHFR binding capacities of these new derivatives.
The dissociation constants for the binding of polyphenols to free recombinant human DHFR (rHDHFR) were determined by fluorescence titration in an automatic-scanning FluoroMax-3 (Jobin Ybon, Horiba, Edison, NJ, USA) spectrofluorometer with 1.0 cm light path cells and a 150 W mercury-xenon light source. The formation of a binary complex between the enzyme (2.5 × 10^−7 M) and the ligand (from 0 to 40 µM) was followed by measuring the quenching of the tryptophan fluorescence of the enzyme upon the addition of microliter volumes of a concentrated stock solution of ligand. Experiments were performed at pH 7.5 in a buffer containing 2-(N-morpholino)ethanesulfonic acid (Mes, 0.025 M), sodium acetate (0.025 M), tris(hydroxymethyl)aminomethane (Tris 0.05 M), and NaCl (0.1 M). The temperature was controlled at 25 °C using a Haake D1G circulating bath with a heater and cooler. Fluorescence emission spectra were recorded when the human DHFR fluorescence was excited at 290 nm, and titrations were performed as described elsewhere.

T1 sequence (P02769 25-607): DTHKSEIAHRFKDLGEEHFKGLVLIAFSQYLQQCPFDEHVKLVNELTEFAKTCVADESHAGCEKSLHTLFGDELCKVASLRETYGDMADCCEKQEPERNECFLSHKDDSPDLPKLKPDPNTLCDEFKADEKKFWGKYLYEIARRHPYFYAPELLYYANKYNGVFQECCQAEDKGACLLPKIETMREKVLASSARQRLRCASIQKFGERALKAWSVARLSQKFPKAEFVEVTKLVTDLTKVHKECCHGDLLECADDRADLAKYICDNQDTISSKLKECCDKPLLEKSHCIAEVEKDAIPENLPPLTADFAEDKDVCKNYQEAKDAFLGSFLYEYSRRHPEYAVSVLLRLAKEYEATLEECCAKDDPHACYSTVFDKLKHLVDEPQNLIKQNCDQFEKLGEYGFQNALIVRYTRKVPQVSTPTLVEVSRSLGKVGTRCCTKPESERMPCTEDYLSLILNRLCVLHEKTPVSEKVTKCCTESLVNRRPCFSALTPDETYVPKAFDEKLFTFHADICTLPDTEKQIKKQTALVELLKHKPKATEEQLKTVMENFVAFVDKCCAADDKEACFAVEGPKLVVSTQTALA

Turning to `COc1cc(C(=O)O[C@H]2Cc3c(O)cc(O)cc3O[C@@H]2c2ccc(O)c(O)c2)cc(OC)c1OC` [TMCG], the Kd was 5.26 µM in data set [1] (site marker: Blank); 9.09 µM in data set [1] (site marker: Ibuprofen); 20 µM in data set [1] (site marker: Warfarin); 5.26 µM in data set [3] (25 °C, pH 7.5, no site marker, read-out: Binding constant (KA) for BSA-catechin complex (converted)); 0.9 µM in data set [4] (Table 2, restates Table 1, read-out: KD, order of binding strengths to rHDHFR depending on D-ring substitution); 0.9 ± 0.1 µM in data set [4] (pH 7.5, 25 °C, fluorescence titration, read-out: Dissociation constant KD of free rHDHFR). Moreover, the “Site selective binding to BSA” value in data set [1] (competition with warfarin (site-I) and ibuprofen (site-II)) is “higher specificity for site-I”. The “Effect of pH on absorption spectra” value in data set [2] is “no significant changes”. In addition, the “Number of binding sites n” value in data set [3] (catechin-BSA complex, double logarithmic plot) is “approximately 1”.
